Like-named read-outs stand apart in the source and are kept apart here.
Legend:
GLP-1R = GLP-1R (Homo sapiens, UniProt P43220); experiment: HitHunter cAMP assay (GLP-1R); assay type: cell-based; conditions: cAMP; for Emax: read-out: (Emax) GLP-1R; for EC50: read-out: EC50 GLP-1R/nM
How it was run: (§1)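 Agonist stimulation lasts 30 min at room temperature on 10,000 cells per well, with phosphodiesterase blocked by 625 μM IBMX. Accumulated cAMP is quantified by competitive antibody luminescence after overnight development.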

GIP-R = biological target: T1, GIP-R (Homo sapiens, UniProt P48546); experiment: HitHunter cAMP assay (GIP-R); assay type: cell-based; conditions: cAMP; for Emax: read-out: (Emax) GIP-R; for EC50: read-out: EC50 GIP-R/nM; for Emax at 1 µM: read-out: (Emax) GIP-R at 1 μM, Table 3
T1 sequence (P48546 22-466): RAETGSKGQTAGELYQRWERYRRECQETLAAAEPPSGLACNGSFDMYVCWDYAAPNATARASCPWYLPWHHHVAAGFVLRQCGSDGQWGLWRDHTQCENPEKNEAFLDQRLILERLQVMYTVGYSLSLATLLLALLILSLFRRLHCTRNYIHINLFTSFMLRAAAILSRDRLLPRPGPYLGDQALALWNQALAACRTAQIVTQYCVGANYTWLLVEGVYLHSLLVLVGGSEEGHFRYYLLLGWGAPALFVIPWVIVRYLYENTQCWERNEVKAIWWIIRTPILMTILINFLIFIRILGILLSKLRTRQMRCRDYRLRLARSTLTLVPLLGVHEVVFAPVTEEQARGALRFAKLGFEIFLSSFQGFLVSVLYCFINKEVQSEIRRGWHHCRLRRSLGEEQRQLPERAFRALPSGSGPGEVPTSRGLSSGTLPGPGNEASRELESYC
How it was run: as §1

Sequence of GLP-1R (P43220 24-463): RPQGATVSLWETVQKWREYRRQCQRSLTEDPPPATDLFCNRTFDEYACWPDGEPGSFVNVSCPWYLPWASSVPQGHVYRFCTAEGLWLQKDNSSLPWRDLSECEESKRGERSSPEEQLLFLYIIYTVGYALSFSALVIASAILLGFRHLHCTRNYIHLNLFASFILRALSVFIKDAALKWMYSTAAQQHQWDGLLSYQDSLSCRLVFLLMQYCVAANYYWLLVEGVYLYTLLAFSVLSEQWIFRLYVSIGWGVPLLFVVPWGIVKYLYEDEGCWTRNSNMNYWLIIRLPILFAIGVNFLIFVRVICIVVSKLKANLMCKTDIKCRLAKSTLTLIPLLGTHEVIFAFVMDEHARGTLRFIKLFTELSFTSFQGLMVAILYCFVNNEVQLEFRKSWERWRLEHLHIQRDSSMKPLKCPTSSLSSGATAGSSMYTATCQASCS

SMILES | Emax (GLP-1R; Table 3) | EC50 (GLP-1R; Table 3) | Emax (GLP-1R; Table 3A) | EC50 (GLP-1R; Table 3A) | Emax (GIP-R; Table 3) | EC50 (GIP-R; Table 3) | Emax (GIP-R; Table 3A) | EC50 (GIP-R; Table 3A) | Emax at 1 µM (GIP-R)
CCCCCCCCCCCCCCCC(=O)N[C@@H](CCC(=O)NCCCC[C@H](NC(=O)[C@H](CO)NC(=O)[C@@H]1CCCN1C(=O)[C@@H]1CCCN1C(=O)[C@@H]1CCCN1C(=O)[C@H](C)NC(=O)CNC(=O)[C@H](CO)NC(=O)[C@H](CO)NC(=O)[C@@H]1CCCN1C(=O)CNC(=O)CNC(=O)[C@H](C)NC(=O)[C@H](CC(C)C)NC(=O)[C@H](CC(C)C)NC(=O)[C@H](Cc1c[nH]c2ccccc12)NC(=O)[C@H](CC(N)=O)NC(=O)[C@@H](NC(=O)[C@H](Cc1ccccc1)NC(=O)[C@H](CCC(=O)O)NC(=O)C(C)(C)NC(=O)[C@H](C)NC(=O)[C@H](C)NC(=O)[C@H](CCC(N)=O)NC(=O)[C@H](CCCCN)NC(=O)[C@H](CC(=O)O)NC(=O)[C@H](CC(C)C)NC(=O)[C@H](Cc1ccc(O)cc1)NC(=O)[C@@H](NC(=O)[C@H](CO)NC(=O)[C@H](Cc1ccc(O)cc1)NC(=O)[C@H](CC(=O)O)NC(=O)[C@H](CO)NC(=O)[C@@H](NC(=O)[C@H](Cc1ccccc1)NC(=O)[C@@H](NC(=O)CNC(=O)[C@@H](CCC(=O)O)NC(=O)CSCC(=O)NCCN1C(=O)CSC1=O)[C@@H](C)O)[C@@H](C)O)[C@@H](C)CC)C(C)C)C(N)=O)C(=O)O [Compound 53] | 99% | 1 to 10 nM | 99% | 1 to 10 nM | 62% | 1 to 10 nM | 62% | 1 to 10 nM | 
CCCCCCCCCCCCCCCC(=O)N[C@@H](CCC(=O)NCCCC[C@H](NC(=O)[C@H](CO)NC(=O)[C@@H]1CCCN1C(=O)[C@@H]1CCCN1C(=O)[C@@H]1CCCN1C(=O)[C@H](C)NC(=O)CNC(=O)[C@H](CO)NC(=O)[C@H](CO)NC(=O)[C@@H]1CCCN1C(=O)CNC(=O)CNC(=O)[C@H](C)NC(=O)[C@H](CC(C)C)NC(=O)[C@H](CC(C)C)NC(=O)[C@H](Cc1c[nH]c2ccccc12)NC(=O)[C@H](CC(N)=O)NC(=O)[C@@H](NC(=O)[C@H](Cc1ccccc1)NC(=O)[C@H](CCC(=O)O)NC(=O)C(C)(C)NC(=O)[C@H](C)NC(=O)[C@H](C)NC(=O)[C@H](CCC(N)=O)NC(=O)[C@H](CCCCN)NC(=O)[C@H](CC(=O)O)NC(=O)[C@H](CC(C)C)NC(=O)[C@H](Cc1ccc(O)cc1)NC(=O)[C@@H](NC(=O)[C@H](CO)NC(=O)[C@H](Cc1ccc(O)cc1)NC(=O)[C@H](CC(=O)O)NC(=O)[C@H](CO)NC(=O)[C@@H](NC(=O)[C@H](Cc1ccccc1)NC(=O)[C@@H](NC(=O)CNC(=O)[C@H](CCC(=O)O)NC(=O)CSCC(=O)NCCC1=CCCC1)[C@@H](C)O)[C@@H](C)O)[C@@H](C)CC)C(C)C)C(N)=O)C(=O)O [Compound 54] | 107% | < 0.1 nM | 107% | < 0.1 nM |  |  |  |  | 6%
CCCCCCCCCCCCCCCC(=O)N[C@@H](CCC(=O)NCCCC[C@H](NC(=O)[C@H](CO)NC(=O)[C@@H]1CCCN1C(=O)[C@@H]1CCCN1C(=O)[C@@H]1CCCN1C(=O)[C@H](C)NC(=O)CNC(=O)[C@H](CO)NC(=O)[C@H](CO)NC(=O)[C@@H]1CCCN1C(=O)CNC(=O)CNC(=O)[C@H](C)NC(=O)[C@H](CC(C)C)NC(=O)[C@H](CC(C)C)NC(=O)[C@H](Cc1c[nH]c2ccccc12)NC(=O)[C@H](CC(N)=O)NC(=O)[C@@H](NC(=O)[C@H](Cc1ccccc1)NC(=O)[C@H](CCC(=O)O)NC(=O)C(C)(C)NC(=O)[C@H](C)NC(=O)[C@H](C)NC(=O)[C@H](CCC(N)=O)NC(=O)[C@H](CCCCN)NC(=O)[C@H](CC(=O)O)NC(=O)[C@H](CC(C)C)NC(=O)[C@H](Cc1ccc(O)cc1)NC(=O)[C@@H](NC(=O)[C@H](CO)NC(=O)[C@H](Cc1ccc(O)cc1)NC(=O)[C@H](CC(=O)O)NC(=O)[C@H](CO)NC(=O)[C@@H](NC(=O)[C@H](Cc1ccccc1)NC(=O)[C@@H](NC(=O)CNC(=O)[C@H](CCC(=O)O)NC(=O)CSCC(=O)NCCN1C(=O)CCN1C)[C@@H](C)O)[C@@H](C)O)[C@@H](C)CC)C(C)C)C(N)=O)C(=O)O [Compound 55] | 104% | 0.1 to 1 nM | 104% | 0.1 to 1 nM | 47% | 1 to 10 nM | 47% | 1 to 10 nM | 
CCCCCCCCCCCCCCCC(=O)NCCCC[C@H](NC(=O)[C@H](CO)NC(=O)[C@@H]1CCCN1C(=O)[C@@H]1CCCN1C(=O)[C@@H]1CCCN1C(=O)[C@H](C)NC(=O)CNC(=O)[C@H](CO)NC(=O)[C@H](CO)NC(=O)[C@@H]1CCCN1C(=O)CNC(=O)CNC(=O)[C@H](C)NC(=O)[C@H](CC(C)C)NC(=O)[C@H](CC(C)C)NC(=O)[C@H](Cc1c[nH]c2ccccc12)NC(=O)[C@H](CC(N)=O)NC(=O)[C@@H](NC(=O)[C@H](Cc1ccccc1)NC(=O)[C@H](CCC(=O)O)NC(=O)C(C)(C)NC(=O)[C@H](C)NC(=O)[C@H](C)NC(=O)[C@H](CCC(N)=O)NC(=O)[C@H](CCCCN)NC(=O)[C@H](CC(=O)O)NC(=O)[C@H](CC(C)C)NC(=O)[C@H](Cc1ccc(O)cc1)NC(=O)[C@@H](NC(=O)[C@H](CO)NC(=O)[C@H](Cc1ccc(O)cc1)NC(=O)[C@H](CC(=O)O)NC(=O)[C@H](CO)NC(=O)[C@@H](NC(=O)[C@H](Cc1ccccc1)NC(=O)[C@@H](NC(=O)CNC(=O)[C@H](CCC(=O)O)NC(=O)CSCC(=O)NCCN1C(=O)CSC1=O)[C@@H](C)O)[C@@H](C)O)[C@@H](C)CC)C(C)C)C(=O)O [Compound 56] | 110% | 0.1 to 1 nM | 110% | 0.1 to 1 nM | 60% | 1 to 10 nM | 60% | 1 to 10 nM | 
CCCCCCCCCCCCCCCC(=O)N[C@@H](CCC(=O)NCCCC[C@H](NC(=O)[C@H](CO)NC(=O)[C@@H]1CCCN1C(=O)[C@@H]1CCCN1C(=O)[C@@H]1CCCN1C(=O)[C@H](C)NC(=O)CNC(=O)[C@H](CO)NC(=O)[C@H](CO)NC(=O)[C@@H]1CCCN1C(=O)CNC(=O)CNC(=O)[C@H](C)NC(=O)[C@H](CC(C)C)NC(=O)[C@H](CC(C)C)NC(=O)[C@H](Cc1c[nH]c2ccccc12)NC(=O)[C@H](CC(N)=O)NC(=O)[C@@H](NC(=O)[C@H](Cc1ccccc1)NC(=O)[C@H](CCC(=O)O)NC(=O)C(C)(C)NC(=O)[C@H](C)NC(=O)[C@H](C)NC(=O)[C@H](CCC(N)=O)NC(=O)[C@H](CCCCN)NC(=O)[C@H](CC(=O)O)NC(=O)[C@H](CC(C)C)NC(=O)[C@H](Cc1ccc(O)cc1)NC(=O)[C@@H](NC(=O)[C@H](CO)NC(=O)[C@H](Cc1ccc(O)cc1)NC(=O)[C@H](CC(=O)O)NC(=O)[C@H](CO)NC(=O)[C@@H](NC(=O)[C@H](Cc1ccccc1)NC(=O)[C@@H](NC(=O)CNC(=O)[C@H](CCC(=O)O)NC(=O)CSCC(=O)NCCC1CCCC1)[C@@H](C)O)[C@@H](C)O)[C@@H](C)CC)C(C)C)C(N)=O)C(=O)O [Compound 57] | 109% | 0.1 to 1 nM | 109% | 0.1 to 1 nM |  |  |  |  | 7%
